Assay results: ChEMBL document CHEMBL3352801, “Synthesis and lipid-lowering evaluation of 3-methyl-1H-purine-2,6-dione derivatives as potent and orally available anti-obesity agents” (Eur J Med Chem, 2014)
Activity calls are given as the source filed them. The rule behind the calls is not given here.

Tests used:
[1] = tested on: Mus musculus; test: Antiobesity activity in diet-induced obese C57Bl/6 mouse assessed as reduction in body weight at 150 mg/kg/day, po for 4 weeks administered with high-fat diet; type: functional; design: scale not given: the % may be the effect or the level left
[2] = tested on: Mus musculus; test: Antiobesity activity in diet-induced obese C57Bl/6 mouse assessed as loss of liver weight at 150 mg/kg/day, po for 4 weeks administered with high-fat diet; type: functional
[3] = tested on: Mus musculus; test: Antiobesity activity in diet-induced obese C57Bl/6 mouse assessed as loss of epididymal fat mass at 150 mg/kg/day, po for 4 weeks administered with high-fat diet; type: functional
[4] = tested on: Mus musculus; test: Increase in glucose tolerance in diet-induced obese C57Bl/6 mouse assessed as induction of insulin secretion at 150 mg/kg/day, po for 4 weeks by oral glucose tolerance test; type: functional, organism-based
[5] = tested on: Mus musculus; test: Decrease in insulin resistance in diet-induced obese C57Bl/6 mouse at 150 mg/kg/day, po for 4 weeks by insulin tolerance test; type: functional, organism-based
[6] = tested on: Mus musculus; test: Antiobesity activity in diet-induced obese C57Bl/6 mouse assessed as reduction in fasting blood glucose at 150 mg/kg/day, po for 4 weeks administered with high-fat diet (reference value: 5.0 +/- 1.30 mM); type: functional
[7] = tested on: Mus musculus; test: Antiobesity activity in diet-induced obese C57Bl/6 mouse assessed as change in insulin level at 150 mg/kg/day, po for 4 weeks administered with high-fat diet (reference value: 11.85 +/- 2.6 mU); type: functional
[8] = tested on: Mus musculus; test: Antiobesity activity in diet-induced obese C57Bl/6 mouse assessed as reduction in triglyceride level at 150 mg/kg/day, po for 4 weeks administered with high-fat diet (reference value: 0.93 +/- 0.09 mM); type: functional
[9] = tested on: Mus musculus; test: Antiobesity activity in diet-induced obese C57Bl/6 mouse assessed as reduction in LDL level at 150 mg/kg/day, po for 4 weeks administered with high-fat diet (reference value: 0.14 +/- 0.07 mM); type: functional
[10] = tested on: Mus musculus; test: Antiobesity activity in diet-induced obese C57Bl/6 mouse assessed as increase in HDL level at 150 mg/kg/day, po for 4 weeks administered with high-fat diet (reference value: 0.60 +/- 0.17 mM); type: functional
[11] = tested on: Mus musculus; test: Antiobesity activity in diet-induced obese C57Bl/6 mouse assessed as reduction in FFA level at 150 mg/kg/day, po for 4 weeks administered with high-fat diet (reference value: 19.55 +/- 1.57 ng/L); type: functional
[12] = tested on: Mus musculus; test: Antiobesity activity in diet-induced obese C57Bl/6 mouse assessed as reduction in hepatic triglyceride level at 150 mg/kg/day, po for 4 weeks administered with high-fat diet by Oil Red O staining-based histological method; type: functional; design: scale not given: the % may be the effect or the level left
[13] = tested on: Mus musculus; test: Antiobesity activity in diet-induced obese C57Bl/6 mouse assessed as reduction in fasting blood glucose at 150 mg/kg/day, po for 4 weeks administered with high-fat diet (reference value: 4.88 +/- 0.75 mM); type: functional
[14] = tested on: Mus musculus; test: Antiobesity activity in diet-induced obese C57Bl/6 mouse assessed as change in insulin level at 150 mg/kg/day, po for 4 weeks administered with high-fat diet (reference value: 4.31 +/- .82 mU); type: functional
[15] = tested on: Mus musculus; test: Antiobesity activity in diet-induced obese C57Bl/6 mouse assessed as reduction in triglyceride level at 150 mg/kg/day, po for 4 weeks administered with high-fat diet (reference value: 0.96 +/- 0.14 mM); type: functional
[16] = tested on: Mus musculus; test: Antiobesity activity in diet-induced obese C57Bl/6 mouse assessed as reduction in LDL level at 150 mg/kg/day, po for 4 weeks administered with high-fat diet (reference value: 0.13 +/- 0.02 mM); type: functional
[17] = tested on: Mus musculus; test: Antiobesity activity in diet-induced obese C57Bl/6 mouse assessed as increase in HDL level at 150 mg/kg/day, po for 4 weeks administered with high-fat diet (reference value: 1.02 +/- 0.13 mM); type: functional
[18] = tested on: Mus musculus; test: Antiobesity activity in diet-induced obese C57Bl/6 mouse assessed as reduction in FFA level at 150 mg/kg/day, po for 4 weeks administered with high-fat diet (reference value: 25.07 +/- 3.49 ng/L); type: functional
[19] = tested on: Mus musculus; test: Antiobesity activity in diet-induced obese C57Bl/6 mouse assessed as reduction in HOMA-IR value at 150 mg/kg/day, po for 4 weeks administered with high-fat diet (reference value: 0.94 +/- 0.23 no_unit); type: functional

CN(C)C(=N)NC(=N)N [METFORMIN]
Activity [1]: 19.08%
Activity [2]: 23.2%
Activity [3]: 22.94%
Activity [4]: Active
Activity [5]: Active
Activity [6]: 5.32 mM
Activity [7]: 8.1 mU
Activity [8]: 0.92 mM
Activity [9]: 0.12 mM
Activity [10]: 0.82 mM
Activity [11]: 21.56 ng/L
Activity [12]: 10.73%
Activity [13]: 7.57 mM
Activity [14]: 5.48 mU
Activity [15]: 1.07 mM
Activity [16]: 0.17 mM
Activity [17]: 1.38 mM
Activity [18]: 26.05 ng/L
Activity [19]: 1.73
